Results from ChEMBL document CHEMBL1201862, “PubChem BioAssay data set” (2004).
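Cultured in 96-well plates, cells were exposed to test compound for 48 hours across five concentrations. The concentration for 50% growth inhibition is given as GI50.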 Activity calls are given as the source filed them. Cut-off read from the data, not from the text of the source: active = GI50 up to about 1.1 µM and inactive = higher.

Assays:
Experiment in all cases: inhibition of tumour cell growth, NCI panel, 48 h
HL-60 = tested on: HL-60
SK-MEL-5 = tested on: SK-MEL-5
ACHN = tested on: ACHN
HCC 2998 = tested on: HCC 2998
Hs-578T = tested on: Hs-578T
SN12C = tested on: SN12C
OVCAR-5 = tested on: OVCAR-5
MOLT-4 = tested on: MOLT-4
MCF7 = tested on: MCF7
A549 = tested on: A549
NCI/ADR-RES = tested on: NCI/ADR-RES
A498 = tested on: A498
OVCAR-3 = tested on: OVCAR-3
EKVX = tested on: EKVX
OVCAR-4 = tested on: OVCAR-4
HOP-92 = tested on: HOP-92
HT-29 = tested on: HT-29
KM12 = tested on: KM12
SK-MEL-28 = tested on: SK-MEL-28
COLO 205 = tested on: COLO 205

Measured: GI50

CNC(=O)OCC1=C(COC(=O)NC)CN(c2ccc(OC)cc2)C1
inactive: HL-60 > 100 µM | SK-MEL-5 > 100 µM | ACHN > 100 µM | HCC 2998 > 100 µM | Hs-578T > 100 µM | SN12C > 100 µM | OVCAR-5 > 100 µM | MOLT-4 > 100 µM | MCF7 > 100 µM | A549 > 100 µM | NCI/ADR-RES > 100 µM | A498 1.9 µM | OVCAR-3 > 100 µM | EKVX > 100 µM | OVCAR-4 > 100 µM | HOP-92 > 100 µM | HT-29 > 100 µM | KM12 > 100 µM | SK-MEL-28 > 100 µM | COLO 205 > 100 µM

CC(=O)Nc1nc(NC(C)=O)c2nc(CO)[nH]c2n1
inactive: HL-60 > 100 µM | SK-MEL-5 > 100 µM | ACHN > 100 µM | HCC 2998 > 100 µM | Hs-578T > 100 µM | SN12C > 100 µM | OVCAR-5 > 100 µM | MOLT-4 > 100 µM | MCF7 > 100 µM | A549 > 100 µM | NCI/ADR-RES > 100 µM | A498 > 100 µM | OVCAR-3 > 100 µM | EKVX > 100 µM | OVCAR-4 > 100 µM | HOP-92 > 100 µM | HT-29 > 100 µM | KM12 > 100 µM | SK-MEL-28 > 100 µM | COLO 205 > 100 µM

COc1cc(O)cc(O)c1C(=O)CC(Cl)(Cl)Cl
inactive: HL-60 > 100 µM | SK-MEL-5 > 100 µM | ACHN > 100 µM | HCC 2998 > 100 µM | Hs-578T > 100 µM | SN12C > 100 µM | OVCAR-5 > 100 µM | MOLT-4 > 100 µM | MCF7 > 100 µM | A549 > 100 µM | NCI/ADR-RES > 100 µM | A498 > 100 µM | OVCAR-3 > 100 µM | EKVX > 100 µM | OVCAR-4 > 100 µM | HOP-92 > 100 µM | HT-29 > 100 µM | KM12 > 100 µM | SK-MEL-28 > 100 µM | COLO 205 > 100 µM

C/C=C1/CN2CCC34c5ccccc5N(C)C23C2CC1C4(C(=O)OC)C(O)O2 (stereo not given)
inactive: HL-60 > 100 µM | SK-MEL-5 > 100 µM | ACHN > 100 µM | HCC 2998 > 100 µM | Hs-578T > 100 µM | SN12C > 100 µM | OVCAR-5 > 100 µM | MOLT-4 > 100 µM | MCF7 > 100 µM | A549 > 100 µM | NCI/ADR-RES > 100 µM | A498 > 100 µM | OVCAR-3 > 100 µM | EKVX > 100 µM | OVCAR-4 > 100 µM | HOP-92 > 100 µM | HT-29 > 100 µM | KM12 > 100 µM | SK-MEL-28 > 100 µM | COLO 205 > 100 µM

N#CC(C#N)=Cn1c(=S)[nH]c2ccc([N+](=O)[O-])cc21
inactive: HL-60 > 100 µM | SK-MEL-5 > 100 µM | ACHN > 100 µM | HCC 2998 > 100 µM | Hs-578T 60.8 µM | SN12C > 100 µM | OVCAR-5 > 100 µM | MOLT-4 > 100 µM | MCF7 > 100 µM | A549 > 100 µM | NCI/ADR-RES > 100 µM | A498 > 100 µM | OVCAR-3 > 100 µM | EKVX > 100 µM | OVCAR-4 > 100 µM | HOP-92 > 100 µM | HT-29 > 100 µM | KM12 > 100 µM | SK-MEL-28 > 100 µM | COLO 205 > 100 µM
